In patent US4444776A, “Dipyrido (4,3-B) (3,4-F) indoles, process for obtaining them, therapeutical use and pharmaceutical compositions” (priority 1977, dated 1984):

Key:
[1] = tested on: Friend leukemia virus; assay: Test 2: viro-induced Friend leukemia (Table II); format: in vivo, DBA2 mice; settings: for mean spleen weight (range): 21 days after virus; for ILS % / Weight of the spleens on the 21st day / Mean survival time (first-last death): VFA 1/250, 5 hrs after the virus
Source text: The protective power of the compounds according to the invention have also been sought on the Friend viro-induced leukemia (J. Exp. Med. 1957-105-307-318) and it has been determined that the compounds according to the invention are antiviral and antitumoral agents in lower animals.
Test 2. Viro-induced Leukemia: Friend leukemia
The protective power of the compounds according to the invention was sought on Friend leukemia, inoculated into DBA2 mice aged from 5-6 weeks. The viral inoculum was produced from a homogenate of leukemic spleen (p/volume) diluted to 1/250 in isotonic phosphate buffer without Ca^++ nor Mg^++ (PBS), corresponding to 100 SD 50 (i.e. to the dose of virus which induces a splenomegaly in 50% of the inoculated mice).
The virus was injected by the IP route and in a volume of 0.2 ml. The product to be tested was injected 5 hours after the virus or 1 day after the virus at the dose indicated in a volume of 0.1 ml (IP route). Each group of twenty control mice received the virus and a placebo or the product to be tested, 10 mice were sacrified on the 21st day, and their spleen removed and weighed. The mice were considered as leukemic when the weight of their spleen exceed 200 mg. For the 10 mice, the life span of the animals was determined.

[2] = tested on: Lewis carcinoma (3LL); assay: Test 13: Lewis carcinoma, antimetastasic effect; format: in vivo, BDF1 mice; settings: for MST: controls 25
Experimental: "carcinome pulmonaire de Lewis" (3LL), K. SUGIURA and C. C. STOCK," Cancer Res. 1955 15 38-51.
In this test, cells (10^6 cells) removed from a tumour-carrying mouse were injected into mice(BDF1) by the IM route. The mice developed, 10 to 15 days after the inoculation, a tumour at the spot where the injection was made. On the other hand, these cells made metastasis in the lung, forming colonies on the pulmonary surface. The antitumoral and antimetastasic effect of a product may therefore be judged on mice thus treated.
Investigation of the antimetastasic effect of the compounds of examples 7 and 8 of the invention
10^6 cells taken from a tumour-carrying mouse were injected by the IM route (left-band paw) into groups of 10 mice and the compounds to be tested were inoculated by the IP route on day J+5 by single or fractioned injection. The mean survival time (MST) and the increased life span (ILS %) were determined.

[3] = tested on: leukemic cells; assay: Test 20: combination of compound 21 with other drugs (Table XV); settings: 10^5 cells, BD 40 20 mg/kg day +4, Endoxan 100 mg/kg day +3
Experimental: A priming dose of endoxan (100 mg/kg) was given 3 days after 10^5 leukemic cells (20 mice).

[4] = tested on: L 1210 leukemia; assay: Test 12: single vs fractioned dose, L 1210 leukemic mice (Table IX); format: in vivo, mouse; parameters: MTS: unit not given beside the values
[5] = tested on: Cl3/8 cells; assay: Test 5: cytotoxic effect in vitro, Cl3/8 cells; format: cell-based, hamster
Experimental: Test 5: Cytotoxic effect in vitro
The cytotoxic effects of the compounds according to the invention were tested in vitro on cultures of hamster, human and mouse cells.
In particular, the BHK21 strain of hamster cells and a clone derived from this strain transformed by Hamster Sarcoma Virus HS5 clone) were used.
5 hours later, the cells were well attached to the plastic support, and the products to be tested were added, dilutions having been made thereof in water or in DMSO (dimethylsulfoxide) if the product is sparingly soluble in water. In this latter case, a control was made with the same final concentration of DMSO in the culture medium.
The state of the cells was examined 24, 48 and 72 hours afterwards.

[6] = tested on: L 1210 leukemia; assay: Test 10: comparison of antitumoral activity with known products, L 1210 (Tables V-VII); format: in vivo, mouse
Experimental: Test 10: Comparison of the antitumoral activity of the compound according to example 7 with that of known products
The compound of example 7, i.e. 1-(γ-diethylaminopropyl)amino-5-methyl-dipyrido-[4,3-b][3,4-f] indole or known compounds were injected into L 1210 leukemic mice 1 or 3 days after the inoculation of the cells at the doses indicated in tables V to VII and the mean survival time (MST) and the precentage of increased life span (ILS %) were measured.
Indications concerned the known products used in this example and particularly their antitumoral properties, their secondary effects and their use in man may be found in "La Chimiotherapie des Cancers", by G. MATHE and M. KENIS Expansion Scientifique Francaise, 3rd edition, Paris 1975.

[7] = tested on: mice; assay: Test 21: toxicity after intraperitoneal injection
Experimental: All drugs were dissolved in aqueous solutions adjusted at pH 5 with acetic acid and inoculated to the mice under a volume of 0.1 ml I.P. after dilution in Mac Coy's medium.
The toxicity of the drugs after intraperitoneal injection was estimated from the mortality rate up to the 30th day.

[8] = 4 injections J+5+6+10+11, 2.5 mg/kg each
[9] = 10^4 cells, 0.2 mg/mouse single at J+3
[10] = 10^4 cells, 4 × 0.05 mg/mouse at J+3+4+5+6
[11] = 10^5 cells, 0.2 mg/mouse single at J+3
[12] = 10^5 cells, 4 × 0.05 mg/mouse at J+3+4+5+6
[13] = Table V, 10^4 cells, J+1, 0.2 mg/mouse
[14] = Table V, 10^4 cells, J+3, doses mg/mouse: example 7 0.2, Thiotepa 0.1, Mitomycine 0.016, BCNU 0.1, Methotrexate 0.250
[15] = Table VI, 10^5 cells, J+1, 0.2 mg/mouse
[16] = Table VI, 10^5 cells, J+3, mg/mouse: Thiotepa 0.1, Mitomycine C 0.016, BCNU 0.1, Methotrexate 0.250, example 7 0.2, Endoxan 4
[17] = Table VII, 10^5 cells, J+3, example 7 0.2 mg/mouse, ON COVIN 0.5 μg/mouse

Cc1c2ccncc2c(C)c2c1[nH]c1ccncc12 [Example 1, 5,11-dimethyl dipyrido [4,3-b][3,4-f] indole]
mean spleen weight (range) ([1]; 25 mg/kg): 1,803 (718-2,635) mg | mean spleen weight (range) ([1]; 50 mg/kg): 960 (373-1,230) mg | ILS % ([1]; 0.1 mg): 59.5% | Weight of the spleens on the 21st day ([1]; 0.1 mg): 2013 mg | Mean survival time (first-last death) ([1]; 0.1 mg, IP): 47.6 (26-78) Days | ILS % ([1]; 0.5 mg): 14.6% | Mean survival time (first-last death) ([1]; 0.5 mg): 34.2 (22.54) Days | Weight of the spleens on the 21st day ([1]; 0.5 mg): 1803 mg | ILS % ([1]; 1 mg): 39.7% | Mean survival time (first-last death) ([1]; 1 mg): 41.7 (14-81) Days | Weight of the spleens on the 21st day ([1]; 1 mg): 959,6 mg

CCN(CC)CCCNc1nccc2c(C)c3[nH]c4ccncc4c3cc12 [Example 7, 1-(γ-diethylaminopropyl)amino-5-methyl-dipyrido-[4,3-b][3,4-f] indole]
ILS % ([2]; 1 injection J+5, 10 mg/kg): 30.8% | MST ([2]; 1 injection J+5, 10 mg/kg): 32.7 | ILS % [2, 8]: 9.6% | MST [2, 8]: 27.4 | protective action concerning metastasic pulmonary invasion of the lung ([2]; IP from J+5): give a protective action | pulmonary metastases counted ([2]; one mouse sacrificed day J+22, one injection J+5, non-treated mouse 77): 35 | ILS % ([3]; BCNU 2 mg/kg): 65.2% | Range of death ([3]; BCNU 2 mg/kg immediately after endoxan): 14-32 | MST ([3]; BCNU 2 mg/kg, control 11.2): 18.5 | ILS % [4, 9]: 19.32% | MTS [4, 9]: 14.2 | Surviving mice [4, 9]: 1 | ILS % [4, 10]: 21% | MTS [4, 10]: 14.4 | Surviving mice [4, 10]: 0 | ILS % [4, 11]: 36.35% | MTS [4, 11]: 14.18 | ILS % [4, 12]: 28.85% | MTS [4, 12]: 13.4 | antitumoral activity, single vs fractioned dose ([4]; same dose single or on 4 occasions): a single dose has greater antitumoral activity than the same dose injected on 4 occasions | cytotoxic activity compared with 2-methyl-9-hydroxy-ellipticinium acetate and 9-hydroxy-ellipticine ([5]; Table III summary): just as active as the already known derivatives | activity compared with products presently used as antitumoral agents in lower animals ([5]; general statement): just as active, or more so | Range of death (first death) [6, 13]: 6 days | mice alive on 30th day [6, 13]: 1 | ILS % [6, 14]: 25.45% | MTS (mean survival time) [6, 14]: 13.8 | Range of death ([6]; Table V, 10^4 cells, J+3, mg/mouse: example 7 0.2, Thiotepa 0.1, Mitomycine 0.016, BCNU 0.1, Methotrexate 0.250, Endoxan 4): 11 to 17 days | ILS % [6, 15]: 39.07% | MTS (mean survival time) [6, 15]: 12.6 | Range of death [6, 15]: 9-16 | ILS % [6, 16]: 35.43% | MTS (mean survival time) [6, 16]: 12.27 | Range of death [6, 16]: 10-15 | ILS % [6, 17]: 36.35% | MTS (mean survival time) [6, 17]: 14.18 | Range of death [6, 17]: 13-16 | time of deaths after drug administration ([7]; IP): 4 to 8 days | minimal quantity resulting in 100% deaths ([7]; IP, mortality up to the 30th day): 50 mg/kg | toxicity (toxic dose) ([7]; Test 17 text): 50 mg/kg
